Measured values published in publication PMC9455983 (International Journal of Molecular Sciences, 2022).
Values joined by “and” are separate entries in the source; they are usually repeats but may differ in a detail not shown here. Identical values can stand only once. Like-named read-outs stand apart in the source and are kept apart here.

Columns and labels:
mu-opioid receptor (MOR) = target: T1, mu-opioid receptor (MOR) (Rattus norvegicus, UniProt P33535); assay: MOR radioligand competition binding assay ([3H]-DAMGO); conditions: Mu screening results
T1 construct: Rat cortices were homogenized using 50 mM Tris, pH 7.4, and centrifuged at 16,500 rpm for 10 min; from tissue; host or cells: rat cortex membranes
Description: MOR binding assay: Rat cortices were homogenized using 50 mM Tris, pH 7.4, and centrifuged at 16,500 rpm for 10 min. The pellets were resuspended in fresh buffer and incubated at 37 °C for 30 min. Following incubation, the suspensions were centrifuged as before, the resulting pellets were resuspended in 100 volumes of 50 mM Tris, pH 7.4 plus 2 mg/mL bovine serum and the suspensions combined. Each assay tube contained 0.5 mL of membrane suspension, 2 nM [^3H]-DAMGO, and 0.02 mg/mL mixture in a total volume of 0.65 mL [13, 45, 53, 55].
(§1) All three binding assays were terminated by filtration through GF/B filters, soaked in 5 mg/mL bovine serum albumin, 50 mM Tris, pH 7.4, on a Tomtec Mach II Harvester 96. The filters were subsequently washed with 6 mL of assay buffer. Bound radioactivity was counted on a Wallac Betaplate Liquid Scintillation Counter. Experiments were conducted using two replicates and repeated twice. Values in Scheme 2 represent the mean ± SD of two experiments with two replicates in each test.

[1] = target: T2, kappa-opioid receptor (KOR) (Cavia porcellus, UniProt P41144); assay: KOR radioligand competition binding assay ([3H]U69,593); parameters: species or system guinea pig; conditions: Kappa screening results
T2 construct: Guinea pig cortices and cerebella were homogenized using 50 mM Tris, pH 7.4; from tissue; host or cells: guinea pig cortex and cerebellum membranes
Description: KOR binding assay: Guinea pig cortices and cerebella were homogenized using 50 mM Tris, pH 7.4, 10 mM MgCl2-6H2O, […] centrifuged and incubated as above. Each assay tube contained 2 nM [^3H]U69,593. Assay tubes were incubated for 2 h at 25 °C. Unlabeled U50,488 was used as a competitor to generate a standard curve and determine nonspecific binding.
as §1

[2] = target: T3, delta-opioid receptor (DOR) (Rattus norvegicus, UniProt P33533); assay: DOR radioligand competition binding assay ([3H]-DPDPE); conditions: Delta screening results
T3 construct: Rat cortices were homogenized using 50 mM Tris, pH 7.4, 10 mM MgCl2-6H2O, 200 µM PMSF; from tissue; host or cells: rat cortex membranes
Description: DOR binding assay: Rat cortices were homogenized using 50 mM Tris, pH 7.4, 10 mM MgCl2-6H2O, 200 µM PMSF, centrifuged and incubated as above. Each assay tube contained 2 nM [^3H]-DPDPE. Assay tubes were incubated for 2.5 h at 25 °C. Unlabeled DPDPE was used as a competitor to generate a standard curve and determine nonspecific binding.
as §1

[3] = experiment 1, unit inferred, read-out: Ki (Exp 1)
[4] = experiment 2, unit inferred, read-out: Ki (Exp 2)
[5] = mean of Exp 1 and Exp 2, unit inferred, read-out: MEAN (Ki)
[6] = mean of two experiments, read-out: Ki
[7] = first Ki column, unit not printed (apparently M), read-out: Ki (first column)
[8] = mean of both Ki, unit inferred, read-out: MEAN (Ki)
[9] = second Ki column, unit not printed (apparently M), read-out: Ki (second column)

SMILES | Ki (mu-opioid receptor (MOR); [3]) [nM] | Ki (mu-opioid receptor (MOR); [4]) [nM] | Ki (mu-opioid receptor (MOR); [5]) [nM] | Ki (mu-opioid receptor (MOR); [6]) [nM] | Ki [1, 3] [µM] | Ki [1, 4] [µM] | Ki [1, 5] [µM] | Ki [1, 6] | Ki [2, 7] [µM] | Ki [2, 8] [µM] | Ki [2, 6] [µM] | Ki [2, 9] [µM]
N=C1NC[C@H](Cc2ccccc2)N1C[C@H](Cc1ccccc1)N1C[C@H](Cc2ccc(O)cc2)NC1=N [1968-2] | 135 | 142 | 139 | 139 | 5.36 | 5.57 | 5.46 | 5.46 µM | 6.92 | 8.1 | 8.1 | 9.28
CC(C)C[C@H]1CN([C@@H](Cc2ccccc2)CN2C(=N)NC[C@@H]2Cc2ccccc2)C(=N)N1 [1968-3] | 2560 | 2630 | 2590 | 2590 | 4.51 | 4.84 | 4.67 | 4.67 µM | 6.37 | 6.66 | 6.66 | 6.95
N=C1NC[C@H](Cc2ccccc2)N1C[C@H](Cc1ccc(O)cc1)N1C[C@H](Cc2ccccc2)NC1=N [1968-5] | 925 | 671 | 798 | 798 | 3.95 | 3.73 | 3.84 | 3.84 µM | 6.4 | 9.23 | 9.23 | 12.1
N=C1NC[C@H](Cc2ccccc2)N1C[C@H](Cc1ccc(O)cc1)N1C[C@H](Cc2ccc(O)cc2)NC1=N [1968-6] | 84.5 | 67.2 | 75.8 | 76 | 5.35 | 3.43 | 4.39 | 4.39 µM | 4.88 | 4.98 | 4.98 | 5.09
CC(C)C[C@@H](CN1C(=N)NC[C@@H]1Cc1ccccc1)N1C[C@H](Cc2ccccc2)NC1=N [1968-9] | 848 | 955 | 901 | 901 | 11.4 | 10.9 | 11.1 | 11.1 µM | 9.83 | 7.82 | 7.82 | 5.81
CC(C)C[C@@H](CN1C(=N)NC[C@@H]1Cc1ccccc1)N1C[C@H](Cc2ccc(O)cc2)NC1=N [1968-10] | 199 | 281 | 240 | 240 | 5.47 | 4.84 | 5.16 | 5.16 µM | 2.23 | 2.21 | 2.21 | 2.19
CC(C)C[C@H]1CN([C@@H](CC(C)C)CN2C(=N)NC[C@@H]2Cc2ccccc2)C(=N)N1 [1968-11] | 2980 | 3040 | 3010 | 3010 | 13.9 | 8.93 | 11.4 | 11.4 µM | 26.4 | 58.6 | 58.6 | 90.9
Cc1cc(O)cc(C)c1C[C@H]1CN([C@@H](CC(C)C)CN2C(=N)NC[C@@H]2Cc2ccccc2)C(=N)N1 [1968-12] | 67.4 | 65.9 | 66.6 | 67 | 1.03 | 1.29 | 1.16 | 1.16 µM | 1.95 | 1.85 | 1.85 | 1.75
Cc1cc(O)cc(C)c1C[C@@H](CN1C(=N)NC[C@@H]1Cc1ccccc1)N1C[C@H](CC(C)C)NC1=N [1968-15] | 350 | 260 | 305 | 305 | 0.568 | 0.504 | 0.536 | 0.536 µM | 1.07 | 1.25 | 1.25 | 1.44
N=C1NC[C@H](Cc2ccc(O)cc2)N1C[C@H](Cc1ccccc1)N1C[C@H](Cc2ccccc2)NC1=N [1968-17] | 1070 | 741 | 907 | 907 | 6.27 | 6.84 | 6.55 | 6.55 µM | 7.93 | 7.1 | 7.1 | 6.27
N=C1NC[C@H](Cc2ccc(O)cc2)N1C[C@H](Cc1ccccc1)N1C[C@H](Cc2ccc(O)cc2)NC1=N [1968-18] | 403 | 401 | 402 | 402 | 3.47 | 3.63 | 3.55 | 3.55 µM | 7.57 | 8.08 | 8.08 | 8.58
Cc1cc(O)cc(C)c1C[C@@H](CN1C(=N)NC[C@@H]1C)N1C[C@H](CC(C)C)NC1=N [1968-19] | 15.9 | 14.2 | 15 | 15 | 0.0893 | 0.0438 | 0.0665 | 0.0665 µM and 0.066 µM | 1.18 | 1.09 | 1.1 | 1.01
Cc1cc(O)cc(C)c1C[C@H]1CN([C@@H](Cc2ccccc2)CN2C(=N)NC[C@@H]2Cc2ccc(O)cc2)C(=N)N1 [1968-20] | 74.7 | 80.3 | 77.5 | 77 | 0.977 | 0.659 | 0.818 | 0.818 µM | 0.877 | 0.853 | 0.853 | 0.829
N=C1NC[C@H](Cc2ccc(O)cc2)N1C[C@H](Cc1ccc(O)cc1)N1C[C@H](Cc2ccccc2)NC1=N [1968-21] | 175 | 199 | 187 | 187 | 3.59 | 3.29 | 3.44 | 3.44 µM | 7.83 | 7.73 | 7.73 | 7.63
CC(C)C[C@H]1CN([C@@H](Cc2ccc(O)cc2)CN2C(=N)NC[C@@H]2Cc2ccc(O)cc2)C(=N)N1 [1968-23] | 2350 | 2270 | 2310 | 2310 | 9.52 | 7.36 | 8.44 | 8.44 µM | – | – | – | –
CC(C)C[C@@H](CN1C(=N)NC[C@@H]1Cc1ccc(O)cc1)N1C[C@H](Cc2ccccc2)NC1=N [1968-25] | 707 | 725 | 716 | 716 | 6.55 | 3.32 | 4.93 | 4.93 µM | 25.4 | 30.5 | 30.5 | 35.7
CC(C)C[C@@H](CN1C(=N)NC[C@@H]1Cc1ccc(O)cc1)N1C[C@H](Cc2ccc(O)cc2)NC1=N [1968-26] | 781 | 751 | 766 | 766 | 15.8 | 13.2 | 14.5 | 14.5 µM | 7.48 | 8.07 | 8.07 | 8.67
CC(C)C[C@H]1CN([C@@H](CC(C)C)CN2C(=N)NC[C@@H]2Cc2ccc(O)cc2)C(=N)N1 [1968-27] | 960 | 1000 | 981 | 981 | 4.24 | 4.84 | 4.54 | 4.54 µM | – | – | – | –
Cc1cc(O)cc(C)c1C[C@H]1CN([C@@H](CC(C)C)CN2C(=N)NC[C@@H]2Cc2ccc(O)cc2)C(=N)N1 [1968-28] | 118 | 119 | 118 | 118 | 0.84 | 1.4 | 1.12 | 1.12 µM | 4.8 | 5.07 | 5.07 | 5.34
CC(C)C[C@H]1CN([C@@H](Cc2ccccc2)CN2C(=N)NC[C@@H]2C)C(=N)N1 [1968-35] | 4450 | 4580 | 4510 | 4510 | 34.1 | 52.6 | 43.3 | 43.3 µM | – | – | – | –
